The first assay has as its target hNav1.4 (Homo sapiens, UniProt P35499). Nature of the assay: cell-based. The following applies: ratio of IonWorks Quattro IC50 values; Table 9. It counts as cell-based. A general note: In patch-clamp work, channel activity is measured electrically.
Chain of hNav1.7 (Q15858 whole entry): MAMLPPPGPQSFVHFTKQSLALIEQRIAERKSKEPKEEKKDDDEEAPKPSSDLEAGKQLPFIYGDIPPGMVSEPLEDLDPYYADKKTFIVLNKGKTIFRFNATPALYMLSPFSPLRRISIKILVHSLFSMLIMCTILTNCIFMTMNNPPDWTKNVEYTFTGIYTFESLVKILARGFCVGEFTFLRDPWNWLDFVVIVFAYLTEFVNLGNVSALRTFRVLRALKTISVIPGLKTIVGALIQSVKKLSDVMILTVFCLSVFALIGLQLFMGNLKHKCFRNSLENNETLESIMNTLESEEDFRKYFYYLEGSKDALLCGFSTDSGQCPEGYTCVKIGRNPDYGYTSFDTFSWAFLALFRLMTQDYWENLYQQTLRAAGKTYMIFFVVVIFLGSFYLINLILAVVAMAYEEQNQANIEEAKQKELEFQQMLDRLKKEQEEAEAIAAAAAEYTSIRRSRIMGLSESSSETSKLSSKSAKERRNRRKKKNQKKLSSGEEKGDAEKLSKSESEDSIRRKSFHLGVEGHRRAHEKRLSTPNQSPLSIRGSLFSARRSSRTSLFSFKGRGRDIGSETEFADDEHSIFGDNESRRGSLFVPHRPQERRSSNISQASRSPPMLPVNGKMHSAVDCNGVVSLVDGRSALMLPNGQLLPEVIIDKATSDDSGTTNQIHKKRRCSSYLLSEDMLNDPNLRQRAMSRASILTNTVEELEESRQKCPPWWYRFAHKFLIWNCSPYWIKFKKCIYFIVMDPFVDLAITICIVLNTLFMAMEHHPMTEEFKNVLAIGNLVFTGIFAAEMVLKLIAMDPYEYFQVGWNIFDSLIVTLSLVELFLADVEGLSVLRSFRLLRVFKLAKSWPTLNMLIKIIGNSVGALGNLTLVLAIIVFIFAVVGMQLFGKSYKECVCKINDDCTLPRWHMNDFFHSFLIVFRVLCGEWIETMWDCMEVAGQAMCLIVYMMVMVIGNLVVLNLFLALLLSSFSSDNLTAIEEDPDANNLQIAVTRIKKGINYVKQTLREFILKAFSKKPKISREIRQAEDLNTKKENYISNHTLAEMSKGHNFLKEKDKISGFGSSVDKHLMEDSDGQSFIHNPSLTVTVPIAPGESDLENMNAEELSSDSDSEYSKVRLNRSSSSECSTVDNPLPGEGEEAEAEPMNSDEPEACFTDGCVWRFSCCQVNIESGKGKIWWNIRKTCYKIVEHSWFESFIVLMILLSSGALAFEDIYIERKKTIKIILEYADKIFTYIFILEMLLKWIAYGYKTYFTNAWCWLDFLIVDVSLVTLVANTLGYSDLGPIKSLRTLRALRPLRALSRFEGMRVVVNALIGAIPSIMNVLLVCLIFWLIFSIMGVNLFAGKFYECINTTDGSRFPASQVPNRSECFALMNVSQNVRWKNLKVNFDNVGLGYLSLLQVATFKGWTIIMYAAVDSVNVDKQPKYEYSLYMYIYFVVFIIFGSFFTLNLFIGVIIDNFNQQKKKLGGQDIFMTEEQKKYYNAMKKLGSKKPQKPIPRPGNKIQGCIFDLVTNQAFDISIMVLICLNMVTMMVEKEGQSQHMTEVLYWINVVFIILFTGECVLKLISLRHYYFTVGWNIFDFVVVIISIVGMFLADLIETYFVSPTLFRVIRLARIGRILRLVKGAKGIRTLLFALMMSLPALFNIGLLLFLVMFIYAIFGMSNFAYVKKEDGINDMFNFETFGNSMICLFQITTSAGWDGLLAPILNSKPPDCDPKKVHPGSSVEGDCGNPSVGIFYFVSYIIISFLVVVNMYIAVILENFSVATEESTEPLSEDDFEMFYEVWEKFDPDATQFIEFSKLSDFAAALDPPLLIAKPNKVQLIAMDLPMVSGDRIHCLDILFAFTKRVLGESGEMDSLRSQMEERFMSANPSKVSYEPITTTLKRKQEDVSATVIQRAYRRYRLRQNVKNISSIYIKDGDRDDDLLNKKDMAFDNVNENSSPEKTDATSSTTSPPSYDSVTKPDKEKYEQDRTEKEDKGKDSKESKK
Chain of hNav1.4 (P35499 whole entry): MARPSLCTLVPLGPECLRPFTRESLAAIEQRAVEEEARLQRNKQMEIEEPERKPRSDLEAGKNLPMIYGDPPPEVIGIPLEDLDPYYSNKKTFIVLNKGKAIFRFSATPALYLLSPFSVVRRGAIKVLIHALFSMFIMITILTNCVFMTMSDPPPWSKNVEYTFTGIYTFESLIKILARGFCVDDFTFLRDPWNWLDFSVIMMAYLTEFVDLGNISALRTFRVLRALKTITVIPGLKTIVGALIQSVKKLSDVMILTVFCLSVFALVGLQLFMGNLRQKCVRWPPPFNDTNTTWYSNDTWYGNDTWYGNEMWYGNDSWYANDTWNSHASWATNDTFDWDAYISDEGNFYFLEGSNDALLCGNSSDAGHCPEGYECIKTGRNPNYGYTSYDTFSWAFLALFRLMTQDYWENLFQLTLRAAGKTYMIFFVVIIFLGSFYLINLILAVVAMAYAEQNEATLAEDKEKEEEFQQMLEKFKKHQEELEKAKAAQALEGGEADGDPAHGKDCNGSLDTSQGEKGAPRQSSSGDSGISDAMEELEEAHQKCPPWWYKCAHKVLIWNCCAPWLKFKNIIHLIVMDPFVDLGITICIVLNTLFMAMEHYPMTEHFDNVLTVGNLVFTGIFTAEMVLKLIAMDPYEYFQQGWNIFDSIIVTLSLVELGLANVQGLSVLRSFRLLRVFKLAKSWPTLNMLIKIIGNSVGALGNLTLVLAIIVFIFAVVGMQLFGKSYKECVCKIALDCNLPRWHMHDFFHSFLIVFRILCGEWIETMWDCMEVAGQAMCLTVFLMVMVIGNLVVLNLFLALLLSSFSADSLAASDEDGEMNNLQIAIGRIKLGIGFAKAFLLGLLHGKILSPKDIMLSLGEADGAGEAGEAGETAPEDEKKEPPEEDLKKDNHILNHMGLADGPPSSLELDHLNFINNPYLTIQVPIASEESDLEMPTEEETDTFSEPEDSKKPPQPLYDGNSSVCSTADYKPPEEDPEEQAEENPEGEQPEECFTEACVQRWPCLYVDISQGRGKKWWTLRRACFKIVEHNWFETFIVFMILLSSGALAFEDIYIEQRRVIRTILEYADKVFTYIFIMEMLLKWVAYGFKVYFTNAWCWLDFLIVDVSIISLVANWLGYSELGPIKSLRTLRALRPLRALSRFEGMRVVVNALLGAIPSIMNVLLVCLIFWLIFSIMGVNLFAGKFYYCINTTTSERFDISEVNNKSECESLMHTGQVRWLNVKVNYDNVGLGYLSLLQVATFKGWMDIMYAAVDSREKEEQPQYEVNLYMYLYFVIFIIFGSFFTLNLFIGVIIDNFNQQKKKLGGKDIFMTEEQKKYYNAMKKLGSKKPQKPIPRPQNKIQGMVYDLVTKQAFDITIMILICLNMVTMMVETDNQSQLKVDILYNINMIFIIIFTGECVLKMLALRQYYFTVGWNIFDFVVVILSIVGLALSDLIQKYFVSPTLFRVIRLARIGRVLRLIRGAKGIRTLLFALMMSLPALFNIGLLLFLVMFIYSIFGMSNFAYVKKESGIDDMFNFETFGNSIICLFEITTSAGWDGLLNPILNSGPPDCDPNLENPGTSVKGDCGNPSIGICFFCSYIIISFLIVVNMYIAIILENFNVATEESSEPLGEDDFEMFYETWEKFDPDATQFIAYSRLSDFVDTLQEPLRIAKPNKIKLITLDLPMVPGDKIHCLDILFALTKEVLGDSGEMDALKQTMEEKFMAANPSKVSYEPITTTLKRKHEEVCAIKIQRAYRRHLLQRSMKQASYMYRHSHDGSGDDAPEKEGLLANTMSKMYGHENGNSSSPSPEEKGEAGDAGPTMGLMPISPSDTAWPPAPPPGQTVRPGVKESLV
For `CC[C@H](C)[C@H](NC(=O)[C@H](Cc1cn(CCCOCCOCCOCCOCCOCCOCCOCCOCCOCCOCCN)nn1)NC(=O)[C@H](CCCCN)NC(=O)[C@H](CCCNC(=N)N)NC(=O)[C@@H]1CSSC[C@@H]2NC(=O)[C@H](C)NC(=O)[C@H](CCCNC(=N)N)NC(=O)[C@H](CCCCN)NC(=O)[C@H](CO)NC(=O)[C@H](CC(=O)O)NC(=O)[C@@H]3CSSC[C@H](NC(=O)[C@H](CCC(=O)O)NC(=O)[C@H](CC(C)C)NC(=O)CNC(=O)[C@H](CCC(=O)O)NC(=O)[C@H](CSSC[C@H](NC(=O)[C@@H](N)Cc4ccc(O)cc4)C(=O)N[C@@H](CCC(N)=O)C(=O)N[C@@H](CCCCN)C(=O)N[C@@H](Cc4c[nH]c5ccccc45)C(=O)N[C@@H](CCSC)C(=O)N[C@@H](Cc4c[nH]c5ccccc45)C(=O)N[C@@H]([C@@H](C)O)C(=O)N3)NC2=O)C(=O)N[C@@H](CCCCN)C(=O)N[C@@H](CC(C)C)C(=O)N[C@@H](Cc2c[nH]c3ccccc23)C(=O)N1)C(N)=O` [compound 187], the Nav1.4/Nav1.7 is recorded as 3.

The next assay addresses hNav1.7 (Homo sapiens, UniProt Q15858). Kind of assay: cell-based. The settings on record: ratio of IonWorks Quattro IC50 values, Nav1.4 over Nav1.7.
Take `CCC[C@@H]1NC(=O)[C@H](Cc2c[nH]c3ccccc23)NC(=O)[C@H](CCCCN)NC(=O)[C@H](CCC(N)=O)NC(=O)[C@@H](NC(=O)[C@@H](N)Cc2ccc(O)cc2)CSSC[C@@H]2NC(=O)[C@@H]3CSSC[C@@H](C(=O)N[C@@H](CCCNC(=N)N)C(=O)N[C@@H](CCCCN)C(=O)N[C@H](C(=O)N[C@H](C(N)=O)[C@@H](C)CC)[C@@H](C)CC)NC(=O)[C@H](Cc4c[nH]c5ccccc45)NC(=O)[C@H](CC(C)C)NC(=O)[C@H](CCCCN)NC(=O)[C@H](CSSC[C@H](NC(=O)[C@H]([C@@H](C)O)NC(=O)[C@H](Cc4c[nH]c5ccccc45)NC1=O)C(=O)N[C@@H](CC(=O)O)C(=O)N[C@@H](CO)C(=O)N[C@@H](CCCCN)C(=O)N[C@@H](CCCNC(=N)N)C(=O)N[C@@H](C)C(=O)N3)NC(=O)[C@H](CCC(=O)O)NC(=O)[C@H](CC(C)C)NC(=O)CNC(=O)[C@H](CCC(=O)O)NC2=O` [compound 111]: the Nav1.4/Nav1.7 worked out at 7.
As to `CC[C@H](C)[C@H](NC(=O)[C@H](CCCCN)NC(=O)[C@H](CCCNC(=N)N)NC(=O)[C@@H]1CSSC[C@@H]2NC(=O)[C@H](C)NC(=O)[C@H](CCCNC(=N)N)NC(=O)[C@H](CCCCN)NC(=O)[C@H](CO)NC(=O)[C@H](CC(=O)O)NC(=O)[C@@H]3CSSC[C@H](NC(=O)[C@H](CCC(=O)O)NC(=O)[C@H](CC(C)C)NC(=O)CNC(=O)[C@H](CCC(=O)O)NC(=O)[C@H](CSSC[C@H](NC(=O)[C@@H](N)Cc4ccc(O)cc4)C(=O)N[C@@H](CCC(N)=O)C(=O)N[C@@H](CCCCN)C(=O)N[C@@H](Cc4c[nH]c5ccccc45)C(=O)N[C@@H](CCSC)C(=O)N[C@@H](Cc4c[nH]c5ccccc45)C(=O)N[C@@H]([C@@H](C)O)C(=O)N3)NC2=O)C(=O)N[C@@H](CCCCN)C(=O)N[C@@H](CC(C)C)C(=O)N[C@@H](Cc2c[nH]c3ccccc23)C(=O)N1)C(=O)N[C@H](C(=O)N[C@@H](Cc1c[nH]c2ccccc12)C(N)=O)[C@@H](C)CC` [compound 113], the Nav1.4/Nav1.7 is 30.
For `CC[C@H](C)[C@H](NC(=O)[C@@H](NC(=O)[C@H](CCCCN)NC(=O)[C@H](CCCNC(=N)N)NC(=O)[C@@H]1CSSC[C@@H]2NC(=O)[C@H](C)NC(=O)[C@H](CCCNC(=N)N)NC(=O)[C@H](CCCCN)NC(=O)[C@H](CO)NC(=O)[C@H](CC(=O)O)NC(=O)[C@@H]3CSSC[C@H](NC(=O)[C@H](Cc4ccc(C(=O)O)cc4)NC(=O)[C@H](CC(C)C)NC(=O)CNC(=O)[C@H](CCC(=O)O)NC(=O)[C@H](CSSC[C@H](NC(=O)[C@@H](N)Cc4ccc(O)cc4)C(=O)N[C@@H](CCC(N)=O)C(=O)N[C@@H](CCCCN)C(=O)N[C@@H](Cc4c[nH]c5ccccc45)C(=O)N[C@@H](CCSC)C(=O)N[C@@H](Cc4c[nH]c5ccccc45)C(=O)N[C@@H]([C@@H](C)O)C(=O)N3)NC2=O)C(=O)N[C@@H](CCCCN)C(=O)N[C@@H](CC(C)C)C(=O)N[C@@H](Cc2c[nH]c3ccccc23)C(=O)N1)[C@@H](C)CC)C(N)=O` [compound 114], the Nav1.4/Nav1.7 is recorded as 24.
Turning to `CC[C@H](C)[C@H](NC(=O)[C@@H](NC(=O)[C@H](CCCCN)NC(=O)[C@H](CCCNC(=N)N)NC(=O)[C@@H]1CSSC[C@@H]2NC(=O)[C@H](C)NC(=O)[C@H](CCCNC(=N)N)NC(=O)[C@H](CCCCN)NC(=O)[C@H](CO)NC(=O)[C@H](CC(=O)O)NC(=O)[C@@H]3CSSC[C@H](NC(=O)[C@H]([C@@H](C)CC)NC(=O)[C@H](CC(C)C)NC(=O)CNC(=O)[C@H](CCC(=O)O)NC(=O)[C@H](CSSC[C@H](NC(=O)[C@@H](N)Cc4ccc(O)cc4)C(=O)N[C@@H](CCC(N)=O)C(=O)N[C@@H](CCCCN)C(=O)N[C@@H](Cc4c[nH]c5ccccc45)C(=O)N[C@@H](CCSC)C(=O)N[C@@H](Cc4c[nH]c5ccccc45)C(=O)N[C@@H]([C@@H](C)O)C(=O)N3)NC2=O)C(=O)N[C@@H](CCCCN)C(=O)N[C@@H](CC(C)C)C(=O)N[C@@H](Cc2c[nH]c3ccccc23)C(=O)N1)[C@@H](C)CC)C(N)=O` [compound 118], the Nav1.4/Nav1.7 is 15.
The same measure, in the same setting: for `CC[C@H](C)[C@H](NC(=O)[C@@H](NC(=O)[C@H](CCCCN)NC(=O)[C@H](CCCNC(=N)N)NC(=O)[C@@H]1CSSC[C@@H]2NC(=O)[C@H](C)NC(=O)[C@H](CCCNC(=N)N)NC(=O)[C@H](CCCCN)NC(=O)[C@H](CO)NC(=O)[C@H](CC(=O)O)NC(=O)[C@@H]3CSSC[C@H](NC(=O)[C@H](CC(C)C)NC(=O)[C@H](CC(C)C)NC(=O)CNC(=O)[C@H](CCC(=O)O)NC(=O)[C@H](CSSC[C@H](NC(=O)[C@@H](N)Cc4ccc(O)cc4)C(=O)N[C@@H](CCC(N)=O)C(=O)N[C@@H](CCCCN)C(=O)N[C@@H](Cc4c[nH]c5ccccc45)C(=O)N[C@@H](CCSC)C(=O)N[C@@H](Cc4c[nH]c5ccccc45)C(=O)N[C@@H]([C@@H](C)O)C(=O)N3)NC2=O)C(=O)N[C@@H](CCCCN)C(=O)N[C@@H](CC(C)C)C(=O)N[C@@H](Cc2c[nH]c3ccccc23)C(=O)N1)[C@@H](C)CC)C(N)=O` [compound 119] the value was 14; for `CC[C@H](C)[C@H](NC(=O)[C@@H](NC(=O)[C@H](CCCCN)NC(=O)[C@H](CCCNC(=N)N)NC(=O)[C@@H]1CSSC[C@@H]2NC(=O)[C@H](C)NC(=O)[C@H](CCCNC(=N)N)NC(=O)[C@H](CCCCN)NC(=O)[C@H](CO)NC(=O)[C@H](CC(=O)O)NC(=O)[C@@H]3CSSC[C@H](NC(=O)[C@H](C(C)C)NC(=O)[C@H](CC(C)C)NC(=O)CNC(=O)[C@H](CCC(=O)O)NC(=O)[C@H](CSSC[C@H](NC(=O)[C@@H](N)Cc4ccc(O)cc4)C(=O)N[C@@H](CCC(N)=O)C(=O)N[C@@H](CCCCN)C(=O)N[C@@H](Cc4c[nH]c5ccccc45)C(=O)N[C@@H](CCSC)C(=O)N[C@@H](Cc4c[nH]c5ccccc45)C(=O)N[C@@H]([C@@H](C)O)C(=O)N3)NC2=O)C(=O)N[C@@H](CCCCN)C(=O)N[C@@H](CC(C)C)C(=O)N[C@@H](Cc2c[nH]c3ccccc23)C(=O)N1)[C@@H](C)CC)C(N)=O` [compound 120], 31.

These data come from patent US10344060B2 (priority 2013, dated 2019).
